Key:
[1] = Actual solubility of curcumin in lipids (laboratory experiment); format: physicochemical
Excerpt: Table 2 Predicted versus actual results of curcumin solubility in different lipids. | column: Actual Solubility (mg/g)

[2] = In vitro drug release (dialysis bag, phosphate buffer pH 6.8, 37 °C); format: physicochemical
Description: The in vitro drug release research was conducted at 37 °C for 24 h in a phosphate buffer (pH 6.8).
The dialysis bag’s molecular weight threshold of 12–14 KDa was used to determine the in vitro drug release from the formulations [35, 82]. […] Regularly, new dissolution medium samples were taken from the dissolution medium and replaced. A volumetric flask filled with 10 Ml of methanol was treated with 1 mL of the filtrate after it was filtered through Whatman filter paper No. 1. As needed, additional dilutions were made. A spectrophotometric technique was used to analyze the materials. Calculations were made with the Korsmeyer and Peppas model and the PCP Disso Version 2.08 programmed [83, 84, 85, 86, 87, 88] to determine the time needed for 50 and 85% drug release, respectively.

[3] = In vitro gut permeation study; format: in vitro ADME; details: after 8 h
Description: The experimental protocol was approved by the Institutional Animal Ethical Committee (IAEC) with approval number CPCSEA/IAEC/JLS/16/9/21/13. Experiments on a fasted Wistar rat’s (weighing 250–300 g) small intestine were conducted in a laboratory setting. An intestinal segment was removed from a dead rat after euthanasia using CO2 inhalation and it was cut into lengths of 6–7 cm. […] In a beaker heated to 37 °C, the sac was submerged in an oxygenated Krebs Ringer solution (20 mL). The sink was maintained by removing and replacing aliquots of 1 mL every 0.5, 1, 1.5, 2, and 8 h with an equivalent volume of warm Krebs Ringer solution heated to 37 °C. Each aliquot’s medication concentration was measured using HPLC (n = 3). The HPLC system is equipped through a Shimadzu LC-10AD VP pump, a C18 Agilent column (Inertsil, 150 mm × 4.66 mm, […]), and a flow rate of 1 mL/min; the mobile phase has been degassed. It is made up of an acetonitrile, water, and methanol (50:10:40) ratio. The detector wavelength was set at 425 nm. The injection volume was 10 µL. The samples were measured after diluting suitably with methanol. Each formulation’s flow and permeability coefficients were calculated.
Papp(cm/sec)=(DQ/dt)(AxCO)

Actual Solubility ([1]; in liquid lipid Castor oil): 3.52 ± 0.52 mg/g
Actual Solubility ([1]; in liquid lipid Corn oil): 1.06 ± 0.15 mg/g
Actual Solubility ([1]; in liquid lipid Grape seeds oil): 0.59 ± 0.64 mg/g
Actual Solubility ([1]; in liquid lipid Oleic acid): 4.61 ± 0.13 mg/g
Actual Solubility ([1]; in liquid lipid Olive oil): 3.48 ± 0.34 mg/g
Actual Solubility ([1]; in liquid lipid Soybean oil): 1.36 ± 0.26 mg/g
Actual Solubility ([1]; in solid lipid Cetosteryl): 2.06 ± 0.13 mg/g
Actual Solubility ([1]; in solid lipid GMS): 3.58 ± 0.03 mg/g
Actual Solubility ([1]; in solid lipid Palmitic acid): 3.28 ± 0.06 mg/g
Actual Solubility ([1]; in solid lipid Stearic acid): 2.62 ± 0.12 mg/g
Actual Solubility ([1]; in solid lipid Tri Palmitin): 3.25 ± 0.30 mg/g
time to dissolve 50% of the curcumin [2]: more than 24 h
Papp at 8 h ([3]; Wistar, rat gut, mucosal to serosal): 4.88 ×10⁻⁶ cm/s
permeability through the rat gut [3]: 6.83 ± 1.53 mcg/cm^2/h
permeability and penetration release rate in the intestine and the gut ([3]; as printed in Conclusions): 6.83 ± 1.53 mg/cm^2/h
SMILES: COc1cc(/C=C/C(=O)CC(=O)/C=C/c2ccc(O)c(OC)c2)ccc1O [curcumin, Curcumin]

Reference: publication PMC9965590, “Development of Computational In Silico Model for Nano Lipid Carrier Formulation of Curcumin” (Molecules, 2023)
